From BindingDB's records for doi:10.1016/j.bmcl.2007.01.039 (Merck Research Laboratories, 2007)

Molecular target: Dipeptidyl peptidase 2 (Homo sapiens, UniProt Q9UHL4)
Assay: Dipeptidyl Peptidase Inhibition Assay

Row | Structure (SMILES) | IC50
1 | C[C@@H]1C(=O)NCCCN1C(=O)C[C@H](N)Cc1cc(F)ccc1F [(3R)-4-[(3R)-3-amino-4-(2,5-difluorophenyl)butanoyl]-3-methyl-1,4-diazepan-2-one] | > 100 µM
2 | C[C@@H]1C(=O)N[C@@H](C(F)(F)F)CCN1C(=O)C[C@H](N)Cc1cc(F)c(F)cc1F [(3R,7R)-4-[(3R)-3-amino-4-(2,4,5-trifluorophenyl)butanoyl]-3-methyl-7-(trifluoromethyl)-1,4-diazepan-2-one] | > 100 µM
